In patent publication US4861788A, “Antibacterial 1-normon-2-yl-heterocyclic compounds” (Beecham Group plc, priority 1983, dated 1989):
In brackets after ≈: the same amount, converted by molar mass. Where two headings read alike, the source gives them in different places.

Legend:
M. hyopneumoniae Str. 11 = assay: MIC against Mycoplasma in vitro (Friis broth with agarose); assay type: cell-based; conditions: Mesomycoplasma hyopneumoniae
M. hyopneumoniae MS 16 = assay: as above; assay type: cell-based; conditions: Mesomycoplasma hyopneumoniae, MS16, 144 h; M. hyopneumoniae MS 16; 6 days at 37° C; read-out: MIC
M. hyopneumoniae TAM 6N = assay: as above; assay type: cell-based; conditions: Mesomycoplasma hyopneumoniae, TAM6N, 144 h; M. hyopneumoniae TAM 6N; 6 days at 37° C; read-out: MIC
[1] = test system: M. hyopneumoniae ATCC 25095; assay: as above; assay type: cell-based; conditions: Mesomycoplasma hyopneumoniae, ATCC25095, 144 h; M. hyopneumoniae ATCC 25095; 6 days at 37° C; read-out: MIC
M. hyorhinis ATCC 25021 = assay: as above; assay type: cell-based; conditions: Mesomycoplasma hyorhinis, ATCC25021, 144 h; M. hyorhinis ATCC 25021; 6 days at 37° C; read-out: MIC
M. bovis NCTC 10131 = assay: microbe, parasite or virus in culture; assay type: cell-based; conditions: NCTC10131, 144 h
[2] = test system: M. bovigenitalium ATCC 14173; assay: MIC against Mycoplasma in vitro (Friis broth with agarose); assay type: cell-based; conditions: 144 h
M. gallisepticum S6 = assay: as above; assay type: cell-based; conditions: Mycoplasmoides gallisepticum, 144 h; M. gallisepticum S6; 6 days at 37° C; read-out: MIC
Bacillus subtilis 6633 = assay: MIC against human bacteria in vitro (nutrient agar, chocolated horse blood); assay type: cell-based; conditions: human; Bacillus subtilis 6633; 18 hours at 37° C; read-out: MIC
Description: (§1) The activity of the normonyl derivaties of the Examples against various bacteria which are important in diseases of humans, was assayed in vitro using serial dilutions in nurient agar with 5% chocolated horse blood.

[3] = test system: Corynebacterium xerosis 9755; assay: as above; assay type: cell-based
Description: as §1

E. coli ESS = assay: as above; assay type: cell-based; conditions: Escherichia coli; human; E. coli ESS; 18 hours at 37° C; read-out: MIC
Description: as §1

E. coli NCTC 10418 = assay: as above; assay type: cell-based; conditions: Escherichia coli
Description: as §1

[4] = test system: Haemophilus influenzae Wy21; assay: as above; assay type: cell-based; conditions: human; Haemophilus influenzae Wy21; 18 hours at 37° C; read-out: MIC
Description: as §1

K. aerogenes A = assay: as above; assay type: cell-based; conditions: Klebsiella aerogenes
Description: as §1

P. mirabilis 889 = assay: as above; assay type: cell-based
Description: as §1

[5] = test system: Pasteurella multocida 1633; assay: as above; assay type: cell-based; conditions: human; Pasteurella multocida 1633; 18 hours at 37° C; read-out: MIC
Description: as §1

[6] = test system: Ps. aeruginosa NCTC 10662; assay: as above; assay type: cell-based; conditions: Pseudomonas aeruginosa
Description: as §1

Sarcina lutea 8340 = assay: as above; assay type: cell-based
Description: as §1

Staph. aureus Oxford = assay: as above; assay type: cell-based; conditions: Staphylococcus aureus; human; Staph. aureus Oxford; 18 hours at 37° C; read-out: MIC
Description: as §1

Staph. aureus Russell = assay: as above; assay type: cell-based; conditions: Staphylococcus aureus; human; Staph. aureus Russell; 18 hours at 37° C; read-out: MIC
Description: as §1

Staph. aureus W2827 = assay: as above; assay type: cell-based; conditions: Staphylococcus aureus; human; Staph. aureus W2827; 18 hours at 37° C; read-out: MIC
Description: as §1

Strep. agalactiae 2788-B = assay: as above; assay type: cell-based; conditions: Streptococcus agalactiae
Description: as §1

Strep. faecalis I = assay: as above; assay type: cell-based; conditions: Enterococcus faecalis
Description: as §1

[7] = test system: Strep. pyogenes R80/421-A; assay: as above; assay type: cell-based; conditions: Streptococcus pyogenes
Description: as §1

Strep. spp. 64/848-C = assay: as above; assay type: cell-based; conditions: human; Strep. spp. 64/848-C; 18 hours at 37° C; read-out: MIC
Description: as §1

Bord. bronchiseptica B09 = assay: MIC against veterinary bacteria in vitro (Diagnostic Sensitivity Test Agar); conditions: Bordetella bronchiseptica, B09, 18 h
Description: (§2) The activity of the normonyl derivatives of the Examples against various veterinarily important bacteria, was assayed in vitro using two-fold serial dilutions in Diagnostic Sensitivity Test Agar inoculated with 10^4 organisms.

Past. haemolytica PA5 = assay: as above; conditions: Mannheimia haemolytica, PA5, 18 h
Description: as §2

[8] = test system: Erysipelothrix rhusiopathiae NCTC 8163; assay: as above; conditions: NCTC8163, 18 h
Description: as §2

[9] = test system: Staph. aureus B4 (pen. resistant); assay: as above; conditions: Staphylococcus aureus, 18 h
Description: as §2

[10] = test system: Staph. aureus 152 (pen. sens); assay: as above; conditions: Staphylococcus aureus, 18 h
Description: as §2

[11] = test system: Strep. suis (group D) SPS11; assay: as above; conditions: Streptococcus suis, 18 h
Description: as §2

Strep. dysgalactiae SPD1 = assay: as above; conditions: Streptococcus dysgalactiae, SPD1, 18 h
Description: as §2

Strep. agalactiae SPA1 = assay: as above; conditions: Streptococcus agalactiae, SPA1, 18 h
Description: as §2

| Structure (SMILES) | MIC (M. hyopneumoniae MS 16) [µg/mL] | MIC (M. hyopneumoniae TAM 6N) [µg/mL] | MIC [1] [µg/mL] | MIC (M. hyorhinis ATCC 25021) [µg/mL] | MIC (M. bovis NCTC 10131) [µg/mL] | MIC (M. gallisepticum S6) [µg/mL] | MIC (Bacillus subtilis 6633) [µg/mL] | MIC (E. coli ESS) [µg/mL] | MIC [4] [µg/mL] | MIC [5] [µg/mL] | MIC (Staph. aureus Oxford) [µg/mL] | MIC (Staph. aureus Russell) [µg/mL] | MIC (Staph. aureus W2827) [µg/mL] | MIC (Strep. spp. 64/848-C) [µg/mL] | MIC (Bord. bronchiseptica B09) [µg/mL] | MIC (Past. haemolytica PA5) [µg/mL] | MIC [8] [µg/mL] | MIC [9] [µg/mL] | MIC [10] [µg/mL] | MIC [11] [µg/mL] | other results |
| --- | --- | --- | --- | --- | --- | --- | --- | --- | --- | --- | --- | --- | --- | --- | --- | --- | --- | --- | --- | --- | --- |
| CC(=Cc1nnc(-c2ccccc2)o1)CC1OCC(CC2OC2C(C)C(C)O)C(O)C1O (stereo not drawn) [Example 1, 2-(1-Normon-2-yl)-5-phenyl-1,3,4-oxadiazole A] | 2.5 (≈ 5.62 µM) | 5 (≈ 11.2 µM) | 2.5 (≈ 5.62 µM) | 1 (≈ 2.25 µM) | 0.05 (≈ 0.112 µM) | > 10 | 5 (≈ 11.2 µM) | 10 (≈ 22.5 µM) | 2.5 (≈ 5.62 µM) | 2.5 (≈ 5.62 µM) | 10 (≈ 22.5 µM) | 25 (≈ 56.2 µM) | 25 (≈ 56.2 µM) | 25 (≈ 56.2 µM) | 40 (≈ 90 µM) | 10 (≈ 22.5 µM) | 80 (≈ 180 µM) | 5 (≈ 11.2 µM) | 5 (≈ 11.2 µM) | 80 (≈ 180 µM) | MIC (M. hyopneumoniae Str. 11; 144 h, M. hyopneumoniae Str. 11, 6 days at 37° C, read-out: MIC): 2.5 µg/mL (≈ 5.62 µM); MIC [2]: 0.1 µg/mL (≈ 0.225 µM); MIC ([3]; Corynebacterium xerosis, 9755, 18 h): > 100 µg/mL; MIC (E. coli NCTC 10418; NCTC10418, 18 h): > 100 µg/mL; MIC (K. aerogenes A; 18 h): > 100 µg/mL; MIC (P. mirabilis 889; Proteus mirabilis, 889, 18 h): > 100 µg/mL; MIC ([6]; NCTC10662, 18 h): > 100 µg/mL; MIC (Sarcina lutea 8340; Micrococcus luteus, 8340, 18 h): > 100 µg/mL; MIC (Strep. agalactiae 2788-B; 2788B, 18 h): 100 µg/mL (≈ 225 µM); MIC (Strep. faecalis I; 18 h): > 100 µg/mL; MIC ([7]; R80/421A, 18 h): 100 µg/mL (≈ 225 µM); MIC (Strep. dysgalactiae SPD1): 10 µg/mL (≈ 22.5 µM); MIC (Strep. agalactiae SPA1): 40 µg/mL (≈ 90 µM) |
| CSc1ccc(-c2nnc(C=C(C)CC3OCC(CC4OC4C(C)C(C)O)C(O)C3O)o2)cc1 (stereo not drawn) [Example 3, 2-p-Methylthiophenyl-5-(1-normon-2-yl)-1,3,4-oxadiazole A] | 0.5 (≈ 1.02 µM) | 2.5 (≈ 5.1 µM) | 1 (≈ 2.04 µM) | 0.5 (≈ 1.02 µM) | 0.1 (≈ 0.204 µM) | > 10 | 4 (≈ 8.15 µM) | 4 (≈ 8.15 µM) | 2 (≈ 4.08 µM) | 8 (≈ 16.3 µM) | 8 (≈ 16.3 µM) | 8 (≈ 16.3 µM) | 8 (≈ 16.3 µM) | 16 (≈ 32.6 µM) | 5 (≈ 10.2 µM) | 20 (≈ 40.8 µM) | 40 (≈ 81.5 µM) | 2.5 (≈ 5.1 µM) | 2.5 (≈ 5.1 µM) | 80 (≈ 163 µM) | MIC (M. hyopneumoniae Str. 11; STR.11, 144 h): 1 µg/mL (≈ 2.04 µM); MIC ([2]; M. bovigenitalium ATCC 14173, 6 days at 37° C, read-out: MIC): 0.5 µg/mL (≈ 1.02 µM); MIC ([3]; human, Corynebacterium xerosis 9755, 18 hours at 37° C, read-out: MIC): > 128 µg/mL; MIC (E. coli NCTC 10418; NCTC10418, human, E. coli NCTC 10418, 18 hours at 37° C, read-out: MIC): > 128 µg/mL; MIC (K. aerogenes A; human, K. aerogenes A, 18 hours at 37° C, read-out: MIC): > 128 µg/mL; MIC (P. mirabilis 889; Proteus mirabilis, human, P. mirabilis 889, 18 hours at 37° C, read-out: MIC): > 128 µg/mL; MIC ([6]; NCTC10662, human, Ps. aeruginosa NCTC 10662, 18 hours at 37° C, read-out: MIC): > 128 µg/mL; MIC (Sarcina lutea 8340; Micrococcus luteus, human, Sarcina lutea 8340, 18 hours at 37° C, read-out: MIC): > 128 µg/mL; MIC (Strep. agalactiae 2788-B; human, Strep. agalactiae 2788-B, 18 hours at 37° C, read-out: MIC): 32 µg/mL (≈ 65.2 µM); MIC (Strep. faecalis I; human, Strep. faecalis I, 18 hours at 37° C, read-out: MIC): > 128 µg/mL; MIC ([7]; human, Strep. pyogenes R80/421-A, 18 hours at 37° C, read-out: MIC): 16 µg/mL (≈ 32.6 µM); MIC (Strep. dysgalactiae SPD1): 10 µg/mL (≈ 20.4 µM); MIC (Strep. agalactiae SPA1): 10 µg/mL (≈ 20.4 µM) |
